Data as given in patent US10344019B2 (priority 2010, dated 2019).
pEC50: −log10 of the molar value.

What was measured:
Assay type in all cases: cell-based
[1] = test system: HCV 3a RLuc cells (NS5A chimeric genotype 1b Con1 replicon with consensus genotype 3a NS5A gene); experiment: microbe, parasite or virus in culture; details: Hepatitis C virus, read-out: 3a, genotype 3a NS5A chimeric replicon
In short: (§1)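 Replicon cells stably carrying the listed RLuc-encoding dicistronic replicons were seeded and treated with DMSO serial dilutions of compound (10 mM stocks) diluted into culture medium. After 72 h, cells were lysed and Renilla luciferase activity measured. EC50 was derived by non-linear regression.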

[2] = test system: HCV 2a JFH-1 Rluc cells (dicistronic genotype 2a JFH-1 replicon, RLuc reporter); experiment: microbe, parasite or virus in culture; details: Hepatitis C virus, genotype 2a JFH-1 RLuc replicon; read-out: 2a JFH
In short: (§2)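 Replicons used: genotype 1b Con1, 1a H77, 2a JFH-1, and a 2a JFH-1 chimera with J6-strain NS5A (M31 present), all dicistronic.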

[3] = test system: HCV 1a RLuc cells (dicistronic genotype 1a H77 replicon, RLuc reporter); experiment: microbe, parasite or virus in culture; details: Hepatitis C virus, genotype 1a H77 RLuc replicon; read-out: 1a
In short: as §2

[4] = test system: HCV 2b Rluc cells (NS5A chimeric genotype 2a JFH-1 replicon with genotype 2b MD2b-1 NS5A gene, M31 present); experiment: microbe, parasite or virus in culture; details: Hepatitis C virus, read-out: 2b
In short: as §1

[5] = test system: HCV 1b RLuc cells (dicistronic genotype 1b Con1 replicon, RLuc reporter); experiment: microbe, parasite or virus in culture; details: Hepatitis C virus, read-out: 1b (nM)
In short: as §2

[6] = test system: Q30R in genotype 1a NS5A, 1a Rluc replicon transfected into Huh-7 cured-51 cells; experiment: HCV replicon assay, resistance mutant 1a Q30R; details: Hepatitis C virus, Huh-7, read-out: 1a Q30R
Method: Evaluation of cell-based anti-HCV activity: Antiviral potency (EC50) was determined using a Renilla luciferase (RLuc)-based HCV replicon reporter assay. To perform the assay for genotype 1 and 2a JFH-1, HCV 1b RLuc cells (harboring a dicistronic genotype 1b Con1 replicon that encodes a RLuc reporter), or HCV 1a RLuc cells (harboring a dicistronic genotype 1a H77 replicon that encodes a RLuc reporter), or HCV 2a JFH-1 Rluc cells (harboring a dicistronic genotype 2a JFH-1 replicon that encodes a RLuc reporter) were dispensed into 384-well plates. To perform the assay for genotype 2a (with M31 present) or 2b, HCV 2a Rluc or 2b Rluc cells (both with M31 present) harboring a dicistronic NS5A chimeric genotype 2a JFH-1 replicon that encodes a RLuc reporter and either genotype 2a J6 strain NS5A gene or genotype 2b MD2b-1 NS5A gene (based on Los Alamos HCV database isolates, both with M31 present) respectively, were dispensed into 384-well plates. To perform the assay for genotype 3 and 4, HCV 3a RLuc or 4a Rluc cells harboring a dicistronic NS5A chimeric genotype 1b Con1 replicon that encodes a RLuc reporter and either a consensus genotype 3a NS5A gene or genotype 4a NS5A gene (based on Los Alamos HCV database isolates) respectively, were dispensed into 384-well plates. Compounds were re-suspended in DMSO at a concentration of 10 mM and serially diluted in DMSO either manually or using an automated pipeting instrument. Serially diluted compounds were mixed with cell culture media and added to the seeded cells. […] 72 hours later, cells were lysed and Renilla luciferase activity quantified as recommended by the manufacturer (Promega-Madison, Wis.). Non-linear regression was performed to calculate EC50 values.
To determine the antiviral potency (EC50) against resistance mutants, resistance mutations, including M28T, Q30R, Q30H, L31M, and Y93C in genotype 1a NS5A and Y93H in genotype 1b NS5A, were introduced individually into either 1a Rluc or 1b Rluc replicons described above by site directed mutagenesis. Replicon RNA of each resistant mutant was transfected into Huh-7 cured-51 cells and antiviral potency was determined on these transfected cells as described above.

[7] = test system: HCV 2a Rluc cells (NS5A chimeric genotype 2a JFH-1 replicon with genotype 2a J6 strain NS5A gene, M31 present); experiment: HCV replicon reporter assay, genotype 2a J6 (M31 present); details: Hepatitis C virus, read-out: 2a J6
In short: as §2

Structure (SMILES): COC[C@H]1C[C@@H](c2ncc(-c3ccc4c(c3)COc3cc5c(ccc6nc([C@@H]7C[C@H]8C[C@H]8N7C(=O)[C@@H](NC(=O)OC)C(C)C)[nH]c65)cc3-4)[nH]2)N(C(=O)[C@H](NC(=O)OC)c2ccccc2)C1 [Example 633]
- pEC50 [1]: 9.00 to 12.00
- pEC50 [2]: 9.00 to 12.00
- pEC50 [3]: 9.00 to 12.00
- pEC50 [4]: 9.00 to 12.00
- EC50 [5]: 0.02 nM
- pEC50 [6]: 9.00 to 12.00
- pEC50 [7]: 9.00 to 12.00

Structure (SMILES): COC(=O)N[C@H](C(=O)N1[C@@H](C)CC[C@H]1c1ncc(-c2ccc3c(c2)COc2cc4c(ccc5nc([C@@H]6C[C@H](C)CN6C(=O)[C@H](NC(=O)OC)c6ccccc6)[nH]c54)cc2-3)[nH]1)C(C)C [Example 617]
- pEC50 [1]: 9.00 to 12.00
- pEC50 [2]: 9.00 to 12.00
- pEC50 [3]: 9.00 to 12.00
- pEC50 [4]: 9.00 to 12.00
- EC50 [5]: 0.005 nM
- pEC50 [6]: 9.00 to 12.00
- pEC50 [7]: 9.00 to 12.00

Structure (SMILES): COC(=O)N[C@H](C(=O)N1[C@@H](C)CC[C@H]1c1ncc(-c2cc3c4c(c2)OCc2cc(-c5cnc([C@@H]6CC[C@H](C)N6C(=O)[C@@H](NC(=O)OC)[C@@H](C)OC)[nH]5)cc(c2-4)OC3)[nH]1)[C@@H](C)OC [Example 616]
- pEC50 [1]: 9.00 to 12.00
- pEC50 [2]: 9.00 to 12.00
- pEC50 [3]: 9.00 to 12.00
- pEC50 [4]: 9.00 to 12.00
- EC50 [5]: 0.018 nM
- pEC50 [6]: 9.00 to 12.00
- pEC50 [7]: 9.00 to 12.00

Structure (SMILES): COC[C@H]1C[C@@H](c2nc3ccc4cc5c(cc4c3[nH]2)OCc2cc(-c3cnc([C@@H]4CCCN4C(O)[C@@H](NC(=O)OC)[C@@H](C)OC)[nH]3)ccc2-5)N(C(=O)[C@H](NC(=O)OC)c2ccccc2)C1 (stereo partly drawn) [Example 618]
- pEC50 [1]: 9.00 to 12.00
- pEC50 [2]: 9.00 to 12.00
- pEC50 [3]: 9.00 to 12.00
- pEC50 [4]: 9.00 to 12.00
- EC50 [5]: 0.02 nM
- pEC50 [6]: 9.00 to 12.00
- pEC50 [7]: 9.00 to 12.00

Structure (SMILES): COC[C@H]1C[C@@H](c2nc3ccc4cc5c(cc4c3[nH]2)OCc2cc(-c3cnc([C@@H]4CC[C@H](C)N4C(=O)[C@@H](NC(=O)OC)C(C)C)[nH]3)ccc2-5)N(C(=O)[C@H](NC(=O)OC)c2ccccc2)C1 [Example 594]
- pEC50 [1]: 9.00 to 12.00
- pEC50 [2]: 9.00 to 12.00
- pEC50 [3]: 9.00 to 12.00
- pEC50 [4]: 9.00 to 12.00
- EC50 [5]: 0.013 nM
- pEC50 [6]: 9.00 to 12.00
- pEC50 [7]: 9.00 to 12.00

Structure (SMILES): COC(=O)N[C@H](C(=O)N1[C@@H](C)CC[C@H]1c1nc2ccc3cc4c(cc3c2[nH]1)OCc1cc(-c2cnc([C@@H]3C[C@H](C)CN3C(=O)[C@H](NC(=O)OC)c3ccccc3)[nH]2)ccc1-4)C(C)C [Example 609]
- pEC50 [1]: 9.00 to 12.00
- pEC50 [2]: 9.00 to 12.00
- pEC50 [3]: 9.00 to 12.00
- pEC50 [4]: 9.00 to 12.00
- EC50 [5]: 0.005 nM
- pEC50 [6]: 9.00 to 12.00
- pEC50 [7]: 9.00 to 12.00

Structure (SMILES): COC[C@H]1C[C@@H](c2ncc(-c3ccc4c(c3)COc3cc5c(ccc6nc([C@@H]7CC[C@H](C)N7C(=O)[C@@H](NC(=O)OC)C(C)C)[nH]c65)cc3-4)[nH]2)N(C(=O)[C@H](NC(=O)OC)c2ccccc2)C1 [Example 599]
- pEC50 [1]: 9.00 to 12.00
- pEC50 [2]: 9.00 to 12.00
- pEC50 [3]: 9.00 to 12.00
- pEC50 [4]: 9.00 to 12.00
- pEC50 [6]: 9.00 to 12.00
- pEC50 [7]: 9.00 to 12.00

Structure (SMILES): COC(=O)N[C@H](C(=O)N1[C@@H](C)CC[C@H]1c1ncc(-c2ccc3c(c2)COc2cc4c(ccc5nc([C@@H]6CCCN6C(=O)[C@@H](NC(=O)OC)[C@@H](C)OC)[nH]c54)cc2-3)[nH]1)C(C)C [Example 603]
- pEC50 [1]: 9.00 to 12.00
- pEC50 [2]: 9.00 to 12.00
- pEC50 [3]: 9.00 to 12.00
- pEC50 [4]: 9.00 to 12.00
- pEC50 [6]: 9.00 to 12.00
- pEC50 [7]: 9.00 to 12.00

Structure (SMILES): COC(=O)N[C@H](C(=O)N1C[C@@H](C)C[C@H]1c1ncc(-c2ccc3c(c2)COc2cc4c(ccc5nc([C@@H]6CC[C@H](C)N6C(=O)[C@@H](NC(=O)OC)C(C)C)[nH]c54)cc2-3)[nH]1)C(C)C [Example 613]
- pEC50 [1]: 9.00 to 12.00
- pEC50 [2]: 9.00 to 12.00
- pEC50 [3]: 9.00 to 12.00
- pEC50 [4]: 9.00 to 12.00
- pEC50 [6]: 9.00 to 12.00
- pEC50 [7]: 9.00 to 12.00
